In patent US11993594B2, “IRAK inhibitors and method for making and using” (Rigel Pharmaceuticals, Inc., priority 2016, dated 2024):
pEC50: −log10 of the molar value. Where two headings read alike, the source gives them in different places.

Experiments:
[1] = tested on: LPS Induced IL23p19 in THP-1 Cells; assay: LPS Induced IL23p19 in THP-1 Cells (with IFNγ Primed) Assay; assay type: cell-based, human; conditions: THP-1 cells primed with IFNγ 50 ng/mL, LPS 1 ug/mL, 18 hours, 10 pt, read-out: IL23-p19 ELISA, THP1-IFNγ, LPS, 10 pt EC50
Excerpt: LPS Induced IL23p19 in THP-1 Cells (with IFNγ Primed) Assay
THP-1 Cells (ATCC, Cat #TIB-202), Dimethyl Sulfoxide (DMSO) (Sigma-Aldrich, Cat #D2650), RPMI 1640 (Cellgro, Cat #10-040-CM), Fetal Bovine Serum (Sigma, Cat #F4135), Albumin From Bovine Serum (BSA) (Sigma-Aldrich, Cat #A7906), LPS (Serotype K-235, Sigma, Product Number L 2143), IFNγ (Peprotech, Cat #300-02) Capture antibody: Human IL-23p19 ELISA (e-Bioscience, Cat. #14-7238-85), Detection antibody: Primary Mouse Biotinylated anti-human IL-12(p40/p70) (e-Bioscience, Cat. #13-7129-85), Secondary HRP-conjugated Streptavidin (R&D Systems, Cat #DY998), 1×PBST Washing Buffer (PBS-Tween tablet) (VWR International, Cat #80058-558), ELISA Blocking Buffer (PBS with 1% BSA), ELISA Dilution Buffer (PBS with 1% BSA), 384 Well Flat-Bottom, MaxiSorp Black Immuno Plates (Thermo Scientific, Cat #12-565-346), 384 Well Flat-Bottom, White Tissue Culture Plates (Thermo Scientific, Cat #12-565-343), Super Signal ELISA Pico Chemiluminescent Substrate (Thermo Scientific, Cat #37070), Cell Titer Glo reagent (Promega, Cat #G7573), Positive control, IKK2VI inhibitor (Calbiochem, Cat #401483), AquaMax 4000 plate washer (Molecular Devices), Luminometer, Wallac Victor2 1420 Multilabel Counter.
On day 1, 50K/well THP-1 cells were seeded and primed with IFNγ (50 ng/mL) in 384-well plates for about 18 hours in RPMI media with 10% FBS. On day 2, the compound was serially diluted in DMSO from 5 mM in 3-fold dilutions, and then diluted 1:125 in RPMI media with 10% FBS. 50 μL/well 2× compound was added to 50 μL/well THP-1 cells (with IFNγ primed) in duplicate in 384 well tissue culture plates. The cells were pre-incubated with compound for 1 hour at 37° C., 5% CO2 before addition of 10 μL/well 11×LPS to give a final concentration of 1 ug/mL LPS. Day 3, after stimulation for 18 hours at 37° C., 5% CO2, the assay plate was centrifuged and 70 μL/well supernatant was harvested. IL-23p19 protein in 70 µL/well of supernatant was measured by sandwich ELISA, and 25 μl/well Cell Titer Glo reagent was added to the remaining cells to measure compound toxicity.
Human IL-23p19 Sandwich ELISA:
Maxisorp immuno ELISA plates were pre-coated with 25 μL/well of anti-IL-23p19 capture antibody (2.5 ug/mL) in PBS overnight at room temperature. After washing with 1×PBST, the plates were blocked using 100 μL/well of 1% BSA in PBS for 2 hours at room temperature. The plates were washed three times with 1×PBST and 70 μL/well supernatant were added. The plates were incubated at room temperature for 2 hours with shaking and washed three times with 1×PBST. 25 μL/well of biotin labeled anti-IL-12(p40/p70) detection antibody (100 ng/mL) in PBS with 1% BSA was added and the plates were incubated at room temperature for 2 hours with shaking. After washing three times with 1×PBST, 25 μL/well of streptavidin-HRP (1:200) in PBS with 1% BSA was added and the plates were incubated at room temperature for 20 minutes with shaking. The plates were washed three times with 1×PBST and 25 μL/well of Super Signal ELISA Pico Chemiluminescent Substrate were added. The plates were read with a luminometer, and the chemiluminescence values were entered into Athena (Rigel) for curve fitting, EC50 calculation, and database storage. […]

[2] = tested on: LPS induced IL-23 (p19/p40) in DC cells; assay: IL23-p19 ELISA, dendritic (DC) cells differentiated from human PBMC, LPS stimulated; assay type: cell-based; conditions: LPS 1 μg/ml, 18 hours, 10 pt
Protocol: Compound Screening Using DC Cells
Human PBMC cells (400 million) obtained from the vendor were transferred into a T-175 flask containing 15 ml RPMI media (10% FBS) and incubate for 2 hours at 37° C. After 2 hours, the media including floating cells was aspirated out carefully and 12 ml of fresh RPMI media (10% FBS) containing GMCSF (100 ng/ml) and IL4 (20 ng/ml) was added, and the flask was kept in a 37° C. incubator for 7 days.
After 3 days, fresh GMCSF (100 ng/ml) and IL4 (20 ng/ml) were added to the flask and the incubation continued. After 7 days, the fully differentiated cells were harvested by spinning down (1200 rpm/5 min) and aspirating the media. The cells were suspended in fresh RPMI media (10% FBS) containing 50 ng/ml IFNγ (1000 U/ml) and then plated (50K/well in 100 μl) onto a white clear bottom 96 well plate and left in a 37° C. incubator for 24 hours.
After 24 hours incubation, 100 μl of RPMI media was added containing 2× concentrated test compound per well to the above cell-culture media (final concentration becomes 1×) and the plates were pre-incubated for 1 hour at 37° C. before stimulating with LPS.
After 1 hour compound pre-incubation, 10 μl per well of 20× concentrated LPS solution in RPMI media was added to give a final concentration of 1 μg/ml. The mixture was shaken and incubated the plates at 37° C. for an additional 18 hours.
155 μl of the supernatant was harvested from each well carefully (without the tip touching the bottom of the well) and to the remaining 50 μl/well of the cell culture plate was added 50 μl of Cell Titer Glo reagent. The mixture was incubated for 1-2 minutes on a shaker and the plate was read for luminescence intensity to determine the compound cytotoxicity. The cell culture supernatant collected above was used to carry out IL23 ELISA (65 μl—Supernatant) and IL10 ELISA (90 μl—Supernatant) as described below.
Human IL-23 (p19/p40) ELISA Protocol (e-Biosciences)
To 10.5 ml PBS add 50 μl of anti-IL23 (p19) was added capture antibody (2.5 μg/ml). The mixture was mixed well and 100 μl of the coating solution was added to each well of the 96 well white plates from Pierce. The wells were covered and incubated overnight at 4° C.
The anti-IL23 (p19)-antibody-coated plates were washed 2× using TBST (use plate washer) and blocked using 200 μl of 0.5% Casein for 1.5 to 2 hours at room temperature with shaking.
The plates were washed 2× using TBST and the supernatant was transferred (65 μl/well) to the above pre-blocked/IL23(p19)-antibody-coated 96 well plate, and incubated at room temperature for 1.5 hours with shaking.
The plates were washed 4× using TBST (plate washer) and 100 μl/well detection antibody solution prepared from 2 μl of biotin labeled anti-IL-12 (p40/p70) antibody in 11 ml 1% BSA/PBS solution (1-5000 dilution) was added. The plates were incubated for 1 hour with shaking at Room temperature.
Again, the plates were washed 4× with TBST and 100 μl of HRP labeled Streptavidin (R&D Systems) solution (10 μl/10 ml 1% BSA solution) was added, and the plates were incubated at room temperature for another 45 minutes with shaking.
After 45 minutes, the plates were washed with TBST 4× and 100 μl/well Super Signal ELISA Pico Chemiluminescent Substrate from Pierce (3.5 ml A+3.5 ml B+3.5 ml MQ water) was added. The plates were shaken for 1-2 minutes then read on a plate reader. […]

Row | Compound | pEC50 ([1]; Homo sapiens, Table 1) | pEC50 ([2]; Table 1, IFNγ 50 ng/ml) | also measured
1 | CCO[C@H]1C[C@@H](n2cc(NC(=O)c3coc(-c4cn[nH]c4)n3)c(-c3ccccn3)n2)C1 [Compound I-22, N-(1-((1s,3s)-3-ethoxycyclobutyl)-3-(pyridin-2-yl)-1H-pyrazol-4-yl)-2-(1H-pyrazol-4-yl)oxazole-4-carboxamide] |  |  | pEC50 ([1]; Table 3): 7.36; pEC50 ([2]; Table 3, IFNγ 50 ng/ml): 7.43
2 | O=C(Nc1cn(C2CCC2)nc1-c1ccccn1)c1coc(-c2cn[nH]c2)n1 [Compound I-23, N-(1-cyclobutyl-3-(pyridin-2-yl)-1H-pyrazol-4-yl)-2-(1H-pyrazol-4-yl)oxazole-4-carboxamide] |  |  | pEC50 ([1]; Table 3): 6.57; pEC50 ([2]; Table 3, IFNγ 50 ng/ml): 7.15
3 | O=C(Nc1cn(CCOCC(F)F)nc1-c1ccccn1)c1coc(-c2cn[nH]c2)n1 [Compound I-25, N-(1-(2-(2,2-difluoroethoxy)ethyl)-3-(pyridin-2-yl)-1H-pyrazol-4-yl)-2-(1H-pyrazol-4-yl)oxazole-4-carboxamide] |  |  | pEC50 ([1]; Table 3): 6.40; pEC50 ([2]; Table 3, IFNγ 50 ng/ml): 6.79
4 | CCO[C@H]1CC[C@H](n2cc(NC(=O)c3coc(-c4cn[nH]c4)n3)c(-c3nc(C(F)(F)F)ccc3F)n2)CC1 [Compound I-31, N-(1-((1r,4r)-4-ethoxycyclohexyl)-3-(3-fluoro-6-(trifluoromethyl)pyridin-2-yl)-1H-pyrazol-4-yl)-2-(1H-pyrazol-4-yl)oxazole-4-carboxamide] | 6.16 | 6.01 | 
5 | CCO[C@H]1CC[C@H](n2cc(NC(=O)c3coc(-c4cn[nH]c4F)n3)c(-c3cnccn3)n2)CC1 [Compound I-32, N-(1-((1r,4r)-4-ethoxycyclohexyl)-3-(pyrazin-2-yl)-1H-pyrazol-4-yl)-2-(5-fluoro-1H-pyrazol-4-yl)oxazole-4-carboxamide] |  | 6.38 | pEC50 ([1]; Table 1): 6.69; pEC50 ([1]; Table 2): 6.69; pEC50 ([2]; Table 2, IFNγ 50 ng/ml): 6.38

More lines, in order of rising pEC50 ([2]; Table 1, IFNγ 50 ng/ml), values ahead:

Row | pEC50 ([1]; Homo sapiens, Table 1) | pEC50 ([2]; Table 1, IFNγ 50 ng/ml) | Compound | also measured
6 | 6.62 | 6.66 | COCCOCCn1cc(NC(=O)c2coc(-c3cn[nH]c3)n2)c(-c2ccccn2)n1 [Compound I-24, N-(1-(2-(2-methoxyethoxy)ethyl)-3-(pyridin-2-yl)-1H-pyrazol-4-yl)-2-(1H-pyrazol-4-yl)oxazole-4-carboxamide] | 
7 | 6.01 | 6.68 | CCO[C@H]1CC[C@H](n2cc(NC(=O)c3coc(-c4cn[nH]c4)n3)c(-c3cc(F)cc(F)n3)n2)CC1 [Compound I-29, N-(3-(4,6-difluoropyridin-2-yl)-1-((1r,4r)-4-ethoxycyclohexyl)-1H-pyrazol-4-yl)-2-(1H-pyrazol-4-yl)oxazole-4-carboxamide] | 
8 | 6.32 | 6.96 | CCO[C@H]1CC[C@H](n2cc(NC(=O)c3coc(-c4cn[nH]c4)n3)c(-c3nc(F)c(F)cc3F)n2)CC1 [Compound I-28, N-(1-((1r,4r)-4-ethoxycyclohexyl)-3-(3,5,6-trifluoropyridin-2-yl)-1H-pyrazol-4-yl)-2-(1H-pyrazol-4-yl)oxazole-4-carboxamide] | 
9 | 7.80 | 7.19 | O=C(Nc1cn([C@H]2CC[C@H](O)CC2)nc1-c1cnccn1)c1coc(-c2cn[nH]c2)n1 [Compound I-27, N-(1-((1r,4r)-4-hydroxycyclohexyl)-3-(pyrazin-2-yl)-1H-pyrazol-4-yl)-2-(1H-pyrazol-4-yl)oxazole-4-carboxamide] | 
10 | 7.23 | 7.63 | O=C(Nc1cn([C@H]2C[C@H](N3CCOCC3)C2)nc1-c1cnccn1)c1coc(-c2cn[nH]c2)n1 [Compound I-33, N-(1-((1r,3r)-3-morpholinocyclobutyl)-3-(pyrazin-2-yl)-1H-pyrazol-4-yl)-2-(1H-pyrazol-4-yl)oxazole-4-carboxamide] | 
11 | 8.11 | 7.73 | O=C(Nc1cn([C@H]2C[C@@H](N3CCOCC3)C2)nc1-c1cnccn1)c1coc(-c2cn[nH]c2)n1 [Compound I-34, N-(1-((1s,3s)-3-morpholinocyclobutyl)-3-(pyrazin-2-yl)-1H-pyrazol-4-yl)-2-(1H-pyrazol-4-yl)oxazole-4-carboxamide] | 
12 | 8.55 | 8.19 | O=C(Nc1cn(C2CCC(N3CCOCC3)CC2)nc1-c1cnccn1)c1coc(-c2cn[nH]c2)n1 (centres unmarked) [Compound I-30, N-(1-((1r,4r)-4-morpholinocyclohexyl)-3-(pyrazin-2-yl)-1H-pyrazol-4-yl)-2-(1H-pyrazol-4-yl)oxazole-4-carboxamide] | 
